Measured values as given in patent US12110255B2, “Additive formulation for reduction or prevention of microbially induced corrosion in concrete or cementitious material” (MICROBAN PRODUCTS COMPANY, priority 2017, dated 2024).
Values after ≈ are worked out from the molar mass of the structure shown. Read-outs that look alike come from different tables or passages of the source.

How the values were obtained:
[1] = tested on: Fusarium oxysporum; assay: Minimum Inhibitory Concentration (MIC) test, aqueous state; assay type: cell-based; conditions: for MIC: Fusarium oxysporum
Experimental: (§1) Table 1 indicates the MIC values generated against Th. Novella, Fusarium and a combination of the two for two antifungal additives that were tested in the aqueous state.
(§2) In addition to testing the active ingredients alone, MIC tests were conducted for combinations of the QS and the antifungal actives. An OIT active material was added to this test using the QS molecule to compatibilize the mixture, making the mixture water soluble so MIC testing was possible. Table 2 summarizes the MIC data generated for these actives:
(§3) Testing was also conducted to determine whether the addition of the defoamer or mixing the QS and OIT together would have any effect on the microbial efficacy of these components.

[2] = tested on: Starkeya + Fusarium; assay: as above; assay type: cell-based, Starkeya novella + Fusarium oxysporum; conditions: for MIC: Fusarium, read-out: Active Ingredient Minimum Inhibitory Concentration, Starkeya + Fusarium
Experimental: as §1
as §2, with “actives: […]” for “actives:”

[3] = tested on: Aspergillus niger; assay: Minimum Inhibitory Concentration (MIC) test; assay type: cell-based; conditions: Table 5, Tributyl Phosphate Defoamer: No
Experimental: as §3

[4] = tested on: Starkeya novella; assay: Minimum Inhibitory Concentration (MIC) test, aqueous state; assay type: cell-based; conditions: Ancylobacter novellus, active ingredient alone
Experimental: as §1
as §2, with “actives: […]” for “actives:”

[5] = Table 5, Tributyl Phosphate Defoamer: No, read-out: MIC, Fusarium oxysporum
[6] = active ingredient alone, aqueous state

Q: Which results are given for `Oc1ccccc1-c1ccccc1.[Na]` [P2, Sodium OrthophenylPhenol]?
A: MIC ([1]; read-out: Active Ingredient Minimum Inhibitory Concentration, Fusarium oxysporum): 250 µg/mL; MIC [2]: 125 µg/mL

Q: With `CCCCCCCCn1sccc1=O` [OIT, 2-Octyl-2H-isothiazol-3-one] as the compound, how does the MIC [1, 5] read?
A: The MIC was 6.3 µg/mL.

Q: What about the MIC [3] of the same compound?
A: Its MIC is 6.3 µg/mL (≈ 29.5 µM).

Q: Which results are given for `CCCCCCCCCCCCCCCCCC[N+](C)(C)CCC[Si](OC)(OC)OC.[Cl-]` [QS, 1-Octadecanaminium, N,N-dimethyl-N-(3-(trimethoxysilyl)propyl)-, chloride]?
A: MIC [1, 5]: 15.6 µg/mL; MIC ([1]; active ingredient alone, aqueous state, read-out: Active Ingredient Minimum Inhibitory Concentration, Fusarium oxysporum): 15.6 µg/mL; MIC [2, 6]: 31.3 µg/mL; MIC [4]: 7.8 µg/mL; MIC [3]: 125 µg/mL

Q: With Imazalil Sulphate [IF4] as the compound, how does the “Active Ingredient Minimum Inhibitory Concentration, Fusarium oxysporum” value [1, 6] read?
A: The value was 500 ppm.

Q: And the “Active Ingredient Minimum Inhibitory Concentration, Starkeya + Fusarium” value [2, 6]?
A: Its value is 500 ppm.
